Results published in patent US20240165123A1, “USE OF A COMPOUND CONTAINING A TRICYCLIC HETEROARYL GROUP” (CSPC Zhongqi Pharmaceutical Technology (Shijiazhuang) Co., …, priority 2021, published 2024).

Columns and labels:
[1] = system: OXA-induced Balb/c mouse atopic dermatitis model; assay: Pharmacodynamic test in the OXA-induced mouse atopic dermatitis model; assay type: in vivo, female Balb/c mice
Description: The purpose of this test was to evaluate the pharmacodynamics of Compound (I) in the OXA-induced Balb/c mouse atopic dermatitis model. Repeated OXA stimulation of the dorsal skin of mice could produce a long-term inflammatory reaction. This model was closer to the clinical skin inflammation and was a common model for screening and evaluating compounds with anti-inflammatory activity.
Female Balb/c mice aged 8-9 weeks, number: 70
According to the body weight of animals in each group before administration, they were randomly divided into 7 groups with 10 animals in each group.
OXA induction was performed on the 7th day. The induction mode was to apply 5% OXA (dissolved in the acetone/olive oil (4/1) solvent) to the back of mice near the neck in an amount of 10 μL (1.5 cm×1.5 cm). Mice in the normal control group were applied with 10 μL of the acetone/olive oil (4/1) solvent in the same way. From the 1st da to 22nd day, the immunostimulation was performed, and 100 μL of 0.1% OXA (dissolved in the acetone/olive oil (4/1) solvent) was evenly applied on the back of mice near the neck. The application was performed every two days. Mice in the normal control group were applied with 100 μL of the acetone/olive oil (4/1) solvent in the same way. On the day of the immunostimulation, measuring the skin thickness, clinically scoring and photographing were required, and the OXA application was carried out after the above work was completed.
Compound (I) was administered by gavage twice a day (PO, bid) from the 1st to 22nd day. The administration was performed in the morning and completed before measuring the skin thickness, clinically scoring, photographing, and the OXA immunostimulation. The interval between two administrations was 8 hours.
Body weight data were recorded twice a week.
Skin thickness (1.5 cm×1.5 cm, the modeling area) was measured with a Mitutoyo digital indicator (Mitutoyo digimatic indicator, Type ID-C, USA) from the 1st to 22nd day. The measurement was performed every two days. If the skin thickness measurement and the OXA immunostimulation were performed on the same day, the skin thickness measurement would be preferred.
The skin in the modeling area was clinically scored according to the skin scoring criteria in Table 12 from the 1st to 22nd day and evaluated every two days. If the skin clinical scoring and the OXA immunostimulation were performed on the same day, the skin clinical scoring would be preferred.
At the end of the study, the tissue in the modeling area was stained with hematoxylin eosin for the skin pathological scoring and the epidermal thickness measurement.
After the mice were sacrificed, the dorsal skin was removed and fixed in 10% neutral formalin for 24 hours. It was dehydrated, then embedded in paraffin and made into 4-micron sections. The skin sections were stained with hematoxylin eosin, and the inflammatory cell infiltration and tissue changes in the stratum corneum, the epidermis layer and the dermis layer were observed under the microscope, and the pathological scores were made. The scoring criteria were: inflammatory cell aggregation and edema, which were divided into slight 1 point, moderate 2 points, and severe 3 points; telangiectasia, which was divided into slight 1 point, moderate 2 points, and severe 3 points.
The specific scoring criteria of inflammatory cell aggregation were as follows: (1) slight-1 point: inflammatory cells occupied a small amount of <10% of the dermal area of the skin; (2) moderate-2 points: inflammatory cells occupied 10%-50% of the dermal area of the skin; (3) severe-3 points: the inflammatory cells occupied greater than 50% of the dermal area of the skin. […]

[2] = Phase I clinical trial, single ascending dose; assay type: in vivo; conditions: human; single ascending dose up to 240 mg
Procedure: Compound (I) had no effect on the central nervous system, respiratory system and cardiovascular system of animals, and was expected to have no side effects on the central nervous system, respiratory system and cardiovascular system of human. The NOAEL of single administration to rats was 2000 mg/kg, the MTD of administration to Beagle dogs was 500 mg/kg/time (1000 mg/kg/day), the NOAEL of repeated administration to rats for 28 days was 10 mg/kg/time (20 mg/kg/day), and the NOAEL of repeated administration to Beagle dogs for 28 days was 3 mg/kg/time (6 mg/kg/ day). […] The effective dose for rats was 3 mg/kg/time bid. According to the exposure, Compound (I) had 1-fold safety window in Beagles and 8-13-fold safety window in SD rats. According to the dose calculation, Compound (I) had 3-fold safety windows in both Beagle dogs and SD rats. The proposed and undetermined initial ascending dose of Compound (I) in the first-in-human trial was 15 mg. […] Therefore, according to the pre-clinical toxicological study data of Compound (I), the single ascending doses of phase I clinical trial to be carried out were 15 mg, 45 mg, 60 mg, 90 mg, 135 mg, 180 mg, 240 mg, 300 mg and 360 mg.

[3] = Effect on central nervous, respiratory and cardiovascular system of animals; assay type: in vivo
Procedure: (§1) According to the general toxicology study in accordance with the NMPA “Good Laboratory Practice for Non-clinical Laboratory Studies” and FDA GLP specification (21CFR Part 58), and in line with the requirements of International Conference on Harmonization of Technical Requirements for Registration of Pharmaceuticals for Human Use (ICH) and the NMPA relevant guidelines, the toxicology study on Compound (I) was carried out to provide safety data support for the use of Compound (I) in clinical patients. The administration mode and the experimental results were as follows: […]

in vivo = assay: in vivo; set-up: species or system SD rats; conditions: SD, rat, po
Procedure: as §1

[4] = Toxicity test of single oral gavage administration in Beagle dogs; assay type: in vivo; conditions: administered twice within 24 hours
Procedure: as §1

[5] = 3 mpk PO bid, after 22 days of treatment

SMILES: NC(=O)c1cnc(Nc2ccc3c(c2)OC[C@H]2CN(S(=O)(=O)C4CC4)CCN32)nc1NC1CC1 [Compound (I), (R)-4-(cyclopropylamino)-2-((3-(cyclopropylsulfonyl)-1,2,3,4,4a,5-hexahydrobenzo[b]pyrazolo[1,2-d][1,4]oxazin-8-yl)amino)pyrimidine-5-arboxamide]
- Influence on the body weight of mice ([1]; 3, 10, 30 and 60 mpk PO bid, end of the study): no significant influence on the body weight of mice
- Body weight ([1]; 3 mpk PO bid, 1st Day): 18.11 ± 0.13 g
- Skin clinical score ([1]; 3 mpk PO bid, 1st Day): 0.4 ± 0.16
- Skin thickness (modeling area) ([1]; 3 mpk PO bid, 1st day): 0.511 ± 0.016 mm
- Body weight ([1]; 3 mpk PO bid, 7th Day): 18.83 ± 0.20 g
- Skin thickness (modeling area) ([1]; 3 mpk PO bid, 7th day): 0.944 ± 0.026 mm
- Skin clinical score ([1]; 3 mpk PO bid, 9th day): 3.1 ± 0.10
- Skin thickness (modeling area) ([1]; 3 mpk PO bid, 17th day): 1.361 ± 0.043 mm
- Skin clinical score ([1]; 3 mpk PO bid, 19th day): 2.9 ± 0.10
- Skin clinical score ([1]; 3 mpk PO bid, 22nd day): 3.0 ± 0.00
- Skin thickness (modeling area) ([1]; 3 mpk PO bid, 22nd day): 1.368 ± 0.028 mm
- Epidermal thickness [1, 5]: 75.79 ± 3.36 μm
- Pathological score [1, 5]: 6.4 ± 0.34
- Body weight ([1]; 3 mpk PO bid, −7th Day): 18.11 ± 0.13 g
- Body weight ([1]; 10 mpk PO bid, 1st Day): 18.11 ± 0.13 g
- Skin clinical score ([1]; 10 mpk PO bid, 1st Day): 0.4 ± 0.16
- Skin thickness (modeling area) ([1]; 10 mpk PO bid, 1st day): 0.535 ± 0.027 mm
- Body weight ([1]; 10 mpk PO bid, 7th Day): 18.80 ± 0.22 g
- Skin thickness (modeling area) ([1]; 10 mpk PO bid, 7th day): 0.958 ± 0.026 mm
- Skin clinical score ([1]; 10 mpk PO bid, 9th day): 3.0 ± 0.00
- Skin thickness (modeling area) ([1]; 10 mpk PO bid, 17th day): 1.257 ± 0.020 mm
- Skin clinical score ([1]; 10 mpk PO bid, 19th day): 2.7 ± 0.15
- Skin clinical score ([1]; 10 mpk PO bid, 22nd day): 2.7 ± 0.15
- Skin thickness (modeling area) ([1]; 10 mpk PO bid, 22nd day): 1.338 ± 0.021 mm
- Body weight ([1]; 10 mpk PO bid, −7th Day): 18.11 ± 0.13 g
- Body weight ([1]; 30 mpk PO bid, 1st Day): 18.10 ± 0.12 g
- Skin clinical score ([1]; 30 mpk PO bid, 1st Day): 0.5 ± 0.17
- Skin thickness (modeling area) ([1]; 30 mpk PO bid, 1st day): 0.534 ± 0.029 mm
- Body weight ([1]; 30 mpk PO bid, 7th Day): 18.79 ± 0.11 g
- Skin thickness (modeling area) ([1]; 30 mpk PO bid, 7th day): 0.976 ± 0.021 mm
- Skin clinical score ([1]; 30 mpk PO bid, 9th day): 3.0 ± 0.00
- Body weight ([1]; 30 mpk PO bid, −7th Day): 18.10 ± 0.12 g
- Body weight ([1]; 60 mpk PO bid, 1st Day): 18.10 ± 0.12 g
- Skin clinical score ([1]; 60 mpk PO bid, 1st Day): 0.6 ± 0.16
- Skin thickness (modeling area) ([1]; 60 mpk PO bid, 1st day): 0.556 ± 0.035 mm
- Body weight ([1]; 60 mpk PO bid, 7th Day): 18.92 ± 0.13 g
- Skin thickness (modeling area) ([1]; 60 mpk PO bid, 7th day): 0.993 ± 0.033 mm
- Skin clinical score ([1]; 60 mpk PO bid, 9th day): 3.0 ± 0.00
- Body weight ([1]; 60 mpk PO bid, −7th Day): 18.10 ± 0.12 g
- Safety in phase I clinical trial [2]: no safety issues above Level 3
- Effect on the central nervous system, respiratory system and cardiovascular system [3]: no effect
- NOAEL (in vivo): 2000 mg/kg
- MTD [4]: 500 mg/kg/time
- MTD at 24 h ([4]; dog, in vivo): 1000 mg/kg/day
